Results as given in the supplement of paper PMC10307832.

How the values were obtained:
Test in all cases: relative viability (nuclei count vs DMSO), 5 days (fraction); higher = more cells survive
201T = test system: 201T
Procedure, shortened: (§1)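 Lung cancer cell lines in 1536-well plates got either a single drug or a fixed anchor-drug dose together with five library-drug doses (not always all listed) in √10 steps, by pin tool, on the day after seeding. Nuclei were counted after 5 days, and relative viability is the treated-to-vehicle ratio of nuclei counts. Values are medians of duplicate plates.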

BEN = test system: BEN
Procedure, shortened: as §1

COR-L 105 = test system: COR-L 105
Procedure, shortened: as §1

COR-L23 = test system: COR-L23
Procedure, shortened: as §1

EKVX = test system: EKVX
Procedure, shortened: as §1

HARA = test system: HARA
Procedure, shortened: as §1

HCC-15 = test system: HCC-15
Procedure, shortened: as §1

HCC-366 = test system: HCC-366
Procedure, shortened: as §1

HCC-78 = test system: HCC-78
Procedure, shortened: as §1

HCC-827 = test system: HCC-827
Procedure, shortened: as §1

LC-2-ad = test system: LC-2-ad
Procedure, shortened: as §1

LU99A = test system: LU99A
Procedure, shortened: as §1

LXF-289 = test system: LXF-289
Procedure, shortened: as §1

NCI-H1650 = test system: NCI-H1650
Procedure, shortened: as §1

NCI-H1734 = test system: NCI-H1734
Procedure, shortened: as §1

NCI-H1755 = test system: NCI-H1755
Procedure, shortened: as §1

NCI-H1944 = test system: NCI-H1944
Procedure, shortened: as §1

NCI-H1975 = test system: NCI-H1975
Procedure, shortened: as §1

NCI-H1993 = test system: NCI-H1993
Procedure, shortened: as §1

NCI-H3122 = test system: NCI-H3122
Procedure, shortened: as §1

NCI-H596 = test system: NCI-H596
Procedure, shortened: as §1

RERF-LC-KJ = test system: RERF-LC-KJ
Procedure, shortened: as §1

SK-LU-1 = test system: SK-LU-1
Procedure, shortened: as §1

`Cc1cnc(-c2cnc(NCCNc3ccc(C#N)cn3)nc2-c2ccc(Cl)cc2Cl)[nH]1` + Nc1nc2[nH]cc(CCc3ccc(C(=O)N[C@@H](CCC(=O)O)C(=O)O)cc3)c2c(=O)[nH]1 [Pemetrexed] (partner 0.2 µM) gave a relative viability (201T; first compound 0.08 µM) of 0.316, a relative viability (201T; first compound 0.8 µM) of 0.345 and a relative viability (201T; first compound 2.53 µM) of 0.301. The relative viability (BEN; first compound 0.08 µM) was 0.787, the relative viability (BEN; first compound 0.253 µM) was 0.751 and the relative viability (BEN; first compound 0.8 µM) was 0.771. It also gave a relative viability (BEN; first compound 2.53 µM) of 0.802, a relative viability (COR-L 105; first compound 0.08 µM) of 1.25 and a relative viability (COR-L 105; first compound 0.253 µM) of 1.06. The relative viability (COR-L 105; first compound 0.8 µM) was 0.903, the relative viability (COR-L 105; first compound 2.53 µM) was 0.832 and the relative viability (COR-L23; first compound 0.08 µM) was 0.191. It also gave a relative viability (COR-L23; first compound 0.253 µM) of 0.19, a relative viability (COR-L23; first compound 0.8 µM) of 0.198 and a relative viability (COR-L23; first compound 2.53 µM) of 0.185. For the same compound, the relative viability (EKVX; first compound 0.08 µM) was 0.455, the relative viability (EKVX; first compound 0.253 µM) was 0.358 and the relative viability (EKVX; first compound 0.8 µM) was 0.339. It also gave a relative viability (HARA; first compound 0.08 µM) of 0.277, a relative viability (HARA; first compound 0.253 µM) of 0.207 and a relative viability (HARA; first compound 0.8 µM) of 0.255. The relative viability (HARA; first compound 2.53 µM) was 0.235, the relative viability (HCC-15; first compound 0.08 µM) was 0.207 and the relative viability (HCC-15; first compound 0.253 µM) was 0.219. For the same compound, the relative viability (HCC-15; first compound 0.8 µM) was 0.216, the relative viability (HCC-15; first compound 2.53 µM) was 0.194 and the relative viability (HCC-366; first compound 0.08 µM) was 0.161. The relative viability (HCC-366; first compound 0.253 µM) was 0.137, the relative viability (HCC-366; first compound 0.8 µM) was 0.133 and the relative viability (HCC-366; first compound 2.53 µM) was 0.126. The relative viability (HCC-78; first compound 0.08 µM) was 0.893, the relative viability (HCC-78; first compound 0.253 µM) was 0.839 and the relative viability (HCC-78; first compound 0.8 µM) was 0.897. It also gave a relative viability (HCC-78; first compound 2.53 µM) of 0.938, a relative viability (HCC-827; first compound 0.08 µM) of 0.27 and a relative viability (HCC-827; first compound 0.253 µM) of 0.267. It also gave a relative viability (HCC-827; first compound 0.8 µM) of 0.245, a relative viability (HCC-827; first compound 2.53 µM) of 0.269 and a relative viability (LC-2-ad; first compound 0.08 µM) of 0.276. The relative viability (LC-2-ad; first compound 0.8 µM) was 0.252, the relative viability (LC-2-ad; first compound 2.53 µM) was 0.247 and the relative viability (LU99A; first compound 0.08 µM) was 0.177. The relative viability (LU99A; first compound 0.253 µM) was 0.201, the relative viability (LU99A; first compound 0.8 µM) was 0.191 and the relative viability (LU99A; first compound 2.53 µM) was 0.198. For the same compound, the relative viability (LXF-289; first compound 0.08 µM) was 0.91, the relative viability (LXF-289; first compound 0.253 µM) was 0.818 and the relative viability (LXF-289; first compound 0.8 µM) was 0.829. For the same compound, the relative viability (LXF-289; first compound 2.53 µM) was 0.962, the relative viability (NCI-H1650; first compound 0.08 µM) was 0.356 and the relative viability (NCI-H1650; first compound 0.253 µM) was 0.361. For the same compound, the relative viability (NCI-H1650; first compound 0.8 µM) was 0.315, the relative viability (NCI-H1650; first compound 2.53 µM) was 0.289 and the relative viability (NCI-H1734; first compound 0.08 µM) was 0.445. The relative viability (NCI-H1734; first compound 0.253 µM) was 0.371, the relative viability (NCI-H1734; first compound 0.8 µM) was 0.395 and the relative viability (NCI-H1734; first compound 2.53 µM) was 0.323. The relative viability (NCI-H1755; first compound 0.08 µM) was 0.403, the relative viability (NCI-H1755; first compound 0.253 µM) was 0.437 and the relative viability (NCI-H1755; first compound 0.8 µM) was 0.421. For the same compound, the relative viability (NCI-H1755; first compound 2.53 µM) was 0.565, the relative viability (NCI-H1944; first compound 0.08 µM) was 0.604 and the relative viability (NCI-H1944; first compound 0.8 µM) was 0.633. The relative viability (NCI-H1944; first compound 2.53 µM) was 0.678, the relative viability (NCI-H1975; first compound 0.08 µM) was 0.289 and the relative viability (NCI-H1975; first compound 0.253 µM) was 0.285. For the same compound, the relative viability (NCI-H1975; first compound 0.8 µM) was 0.287, the relative viability (NCI-H1975; first compound 2.53 µM) was 0.242 and the relative viability (NCI-H1993; first compound 0.08 µM) was 0.6. It also gave a relative viability (NCI-H1993; first compound 0.253 µM) of 0.512, a relative viability (NCI-H1993; first compound 0.8 µM) of 0.535 and a relative viability (NCI-H1993; first compound 2.53 µM) of 0.519. It also gave a relative viability (NCI-H3122; first compound 0.08 µM) of 0.201, a relative viability (NCI-H3122; first compound 0.8 µM) of 0.183 and a relative viability (NCI-H3122; first compound 2.53 µM) of 0.174. It also gave a relative viability (NCI-H596; first compound 0.08 µM) of 0.531, a relative viability (NCI-H596; first compound 0.253 µM) of 0.485 and a relative viability (NCI-H596; first compound 0.8 µM) of 0.49. The relative viability (NCI-H596; first compound 2.53 µM) was 0.53, the relative viability (RERF-LC-KJ; first compound 0.08 µM) was 0.496 and the relative viability (RERF-LC-KJ; first compound 0.253 µM) was 0.458. For the same compound, the relative viability (RERF-LC-KJ; first compound 0.8 µM) was 0.4, the relative viability (RERF-LC-KJ; first compound 2.53 µM) was 0.424 and the relative viability (SK-LU-1; first compound 0.08 µM) was 0.966. The relative viability (SK-LU-1; first compound 0.253 µM) was 0.97, the relative viability (SK-LU-1; first compound 0.8 µM) was 0.975 and the relative viability (SK-LU-1; first compound 2.53 µM) was 0.823.
